# Entries after “also recorded” stand apart in the source; their conditions may differ. Like-named read-outs stand apart in the source and are kept apart here. Where no end group is shown, it is not given here. [ ]: non-standard residue; d: D form.
# Columns and labels:
# [1] = molecular target: CCR5 receptor on human monocytes (human) (UniProt P51681); experiment: cell-based or functional assay
# [2] = tested on: CCL5; conditions: mouse synaptosomes; cited from earlier work
# [3] = tested on: TNFα; conditions: Hu; phenotype M1; cited from earlier work
# [4] = tested on: TLR4/MyD88; conditions: Rat; phenotype M1; cited from earlier work
# [5] = tested on: IL-10; conditions: Hu; phenotype M2; cited from earlier work
# [6] = tested on: activated microglia; experiment: Pre-clinical animal models: neuron loss with aging, activated microglial neurotoxicity; type: in vivo
# Source text: In humans DAPTA improved cognition, speed of information processing and functional brain imaging in neuro-AIDS (24, 25). Therefore, it is believed that the compounds according to the present invention have a strong potential to improve cognitive deficits in the indicated conditions due to shared neurodegenerative inflammatory mechanisms.
# [7] = tested on: IL-4; conditions: Hu; phenotype M2; cited from earlier work
# [8] = humans, neuro-AIDS; cited from earlier work
# [9] = tested on: STAT3; conditions: Hu; phenotype M1; cited from earlier work
# [10] = tested on: IL-1; conditions: Hu; phenotype M1; cited from earlier work
# [11] = tested on: IL-6; conditions: Hu; phenotype M1; cited from earlier work
# [12] = tested on: ICAM-1; conditions: Hu; phenotype M1; cited from earlier work
# [13] = tested on: NFkB; conditions: Hu; phenotype M1; cited from earlier work
# [14] = tested on: IL-13; conditions: Hu; phenotype M2; cited from earlier work
# [15] = tested on: IL-8; conditions: Hu; phenotype M1; cited from earlier work
# [16] = tested on: IL-23; conditions: Hu; phenotype M1; cited from earlier work
# [17] = molecular target: T1, CCR2 (Homo sapiens, UniProt P41597); experiment: CCL2 (MCP-1) elicited chemotaxis of human monocytes; type: cell-based; parameters: endogenous in cells; host or cells: human monocytes; conditions: FIG. 3; methods similar to FIG. 2; low concentration
# T1 sequence (P41597 1-360 isoform P41597-2): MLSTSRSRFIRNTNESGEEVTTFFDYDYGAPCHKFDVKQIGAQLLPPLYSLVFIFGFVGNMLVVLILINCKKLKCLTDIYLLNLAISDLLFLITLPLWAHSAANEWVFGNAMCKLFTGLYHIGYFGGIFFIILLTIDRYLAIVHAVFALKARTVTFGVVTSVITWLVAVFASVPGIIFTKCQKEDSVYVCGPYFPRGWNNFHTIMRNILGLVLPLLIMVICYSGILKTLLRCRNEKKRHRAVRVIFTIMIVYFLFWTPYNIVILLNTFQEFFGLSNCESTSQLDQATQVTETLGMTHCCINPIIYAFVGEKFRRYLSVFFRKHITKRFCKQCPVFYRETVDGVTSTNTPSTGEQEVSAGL
# Experimental: Monocytes were treated with the indicated doses of RAP-103 for 30 min before chemotaxis against human CCL2 (MCP-1) or CCL4 (MIP-1β) (both 50 ng/mL) for 90 min. Data (chemotactic index) are presented as mean ±SEM. The chemotactic index for MCP-1 without RAP-103 was 2.5-3.5 times over control, whereas for MIP-1 ? without RAP-103, it was approximately 2 times over control. Data are presented as mean ±SEM. (*P<0.05, **P<0.01 vs RAP-103 untreated). Data are from (12), FIG. 1. […] Dual-chemokine CCR2/CCR5 receptor antagonists may have added therapeutic value by blocking multiple inflammatory pathways.
# The methods employed are similar to those in FIG. 2.
# [18] = molecular target: insulin-like growth factor 1 receptor (IGF-1R) (Homo sapiens, UniProt P08069)
# Experimental: (§1) To determine whether all-D-TTNYT (SEQ ID NO:1) blocks maturation of antigen-presenting dendritic cells, human PBMC's were isolated from peripheral blood by Ficoll-Paque centrifugation and then monocytes were isolated by negative selection using immunobeads (Miltenyi). Human monocyte derived immature dendritic cells (iDCs) were then generated by treating monocytes with GM-CSF/IL4.
# The iDCs were treated with all-D-TTNYT (SEQ ID NO:1), generic name RAP103 (12), at 10-12 M for 30 min. […]
# [19] = molecular target: T1, CCR2; conditions: 30 min pretreatment, CCL2 50 ng/mL for 90 min, FIG. 2, cited from earlier work
# [20] = tested on: TLR4/MyD88; conditions: iDCs, peptide 10-12 M for 30 min, then LPS 100 ng/ml, 48 hrs
# Experimental: as §1
# The iDCs were treated with all-D-TTNYT (SEQ ID NO:1), generic name RAP103 (12), at 10-12 M for 30 min. After 30 min LPS (100 ng/ml) was added to the cells and cells were analyzed after 48 hrs. for surface maturation markers using fluorescent labeled antibodies by flow cytometry.
# [21] = tested on: MCP-1 (CCL2); conditions: Rat, nerve injured, oral gavage 0.05-1 mg/kg for 7 days, M1
# Source text: (§2) The specific experimental details are provided in Padi, 2012 (12).
# [22] = tested on: IL-1β; conditions: Rat, nerve injured, oral gavage 0.05-1 mg/kg for 7 days, M1
# Source text: as §2
# [23] = tested on: CCR2; conditions: Rat, nerve injured, oral gavage 0.05-1 mg/kg for 7 days, M1
# Source text: as §2
# [24] = tested on: TNFα; conditions: Rat, nerve injured, oral gavage 0.05-1 mg/kg for 7 days, M1
# Source text: as §2
# [25] = tested on: MIP-1α (CCL3); conditions: Rat, nerve injured, oral gavage 0.05-1 mg/kg for 7 days, M1
# Source text: as §2
# [26] = tested on: IL-6; conditions: Rat, nerve injured; oral gavage 0.05-1 mg/kg for 7 days; M1
# Source text: as §2
# [27] = tested on: CCR5; conditions: Rat, nerve injured, oral gavage 0.05-1 mg/kg for 7 days, M1
# Source text: as §2
# [28] = molecular target: CCR5 (Homo sapiens, UniProt P51681); conditions: 30 min pretreatment, CCL4 50 ng/mL for 90 min, FIG. 2, cited from earlier work
# [29] = tested on: response to bradykinin; conditions: amounts up to 50,000 times the standard challenge of bradykinin; cited from earlier work
# [30] = molecular target: CCR2 receptor on human monocytes (human) (UniProt P41597); experiment: cell-based or functional assay
# [31] = listed as all-D-pentapeptide TTNYT
# CCR5 (Homo sapiens, UniProt P51681), sequence (P51681 whole entry): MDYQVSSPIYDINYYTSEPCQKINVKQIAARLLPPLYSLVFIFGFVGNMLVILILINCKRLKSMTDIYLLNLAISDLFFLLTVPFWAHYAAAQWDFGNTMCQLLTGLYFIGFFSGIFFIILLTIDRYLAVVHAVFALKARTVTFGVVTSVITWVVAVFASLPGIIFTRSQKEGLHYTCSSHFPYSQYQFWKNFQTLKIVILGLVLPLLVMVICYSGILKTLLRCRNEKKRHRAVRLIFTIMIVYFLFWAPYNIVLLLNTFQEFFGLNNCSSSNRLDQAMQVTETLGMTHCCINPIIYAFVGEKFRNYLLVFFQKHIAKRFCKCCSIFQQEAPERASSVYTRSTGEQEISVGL
# insulin-like growth factor 1 receptor (IGF-1R), sequence (P08069 31-736 limits assumed): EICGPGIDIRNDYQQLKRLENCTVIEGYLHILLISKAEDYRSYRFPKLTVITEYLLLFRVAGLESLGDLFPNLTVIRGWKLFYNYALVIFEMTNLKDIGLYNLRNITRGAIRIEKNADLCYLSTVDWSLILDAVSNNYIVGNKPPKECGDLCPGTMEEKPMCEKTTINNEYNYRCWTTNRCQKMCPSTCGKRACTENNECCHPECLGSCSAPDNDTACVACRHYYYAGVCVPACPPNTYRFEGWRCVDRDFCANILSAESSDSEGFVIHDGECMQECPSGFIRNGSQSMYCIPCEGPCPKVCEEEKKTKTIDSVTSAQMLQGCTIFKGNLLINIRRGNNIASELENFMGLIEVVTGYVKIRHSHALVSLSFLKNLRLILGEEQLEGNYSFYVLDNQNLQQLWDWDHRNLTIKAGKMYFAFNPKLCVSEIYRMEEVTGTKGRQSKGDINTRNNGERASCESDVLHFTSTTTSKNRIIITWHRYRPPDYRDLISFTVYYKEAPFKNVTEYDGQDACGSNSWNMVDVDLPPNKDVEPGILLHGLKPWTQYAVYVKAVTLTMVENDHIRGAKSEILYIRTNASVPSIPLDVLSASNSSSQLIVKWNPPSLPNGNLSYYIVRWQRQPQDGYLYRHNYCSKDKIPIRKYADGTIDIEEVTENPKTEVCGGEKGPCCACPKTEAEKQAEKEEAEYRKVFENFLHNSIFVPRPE
substance,measurement,setting,value
CCL4 (MIP-1β) (from UniProt P13236 24-92) (ligand),"chemotactic index of human monocytes, without RAP-103 (times over control)",[1],2
Dala1-peptide T-amide [DAPTA],CCL5 facilitated release of aspartate,[2],blocked
same,TNFα Change,[3],reduced; also recorded: decrease
same,TLR4/MyD88 Change,[4],decrease
same,IL-10 Change,[5],elevated; also recorded: increase
same,activated microglial mediated neurotoxicity and release of cytokines and chemokines,[6],blocked
same,loss of neurons with aging,[6],prevented
same,IL-4 Change,[7],elevated; also recorded: increase
same,cognition,[8],improved
same,functional brain imaging,[8],improved
same,speed of information processing,[8],improved
same,STAT3 Change,[9],decrease
same,IL-1 Change,[10],reduced; also recorded: decrease
same,IL-6 Change,[11],reduced; also recorded: decrease
same,ICAM-1 Change,[12],decrease
same,NFkB Change,[13],decrease
same,IL-13 Change,[14],elevated; also recorded: increase
same,IL-8 Change,[15],reduced; also recorded: decrease
same,IL-23 Change,[16],decrease
all-D-NTSYR: all-D-version of DAPTA related pentapeptide NTSYR ([dN][dT][dS][dY][dR]),CCL2 (MCP-1) human monocyte chemotaxis,[17],antagonists
all-D-SSTYR: all-D-version of DAPTA related pentapeptide SSTYR ([dS][dS][dT][dY][dR]),CCL2 (MCP-1) human monocyte chemotaxis,[17],antagonists
all-D-TTNYT,DC maturation of these four markers caused by LL37,[18],no effect
same,MCP-1 (CCL2)-elicited chemotaxis of human monocytes,[19],potently blocking
same,MCP-1 (CCL2)-elicited chemotaxis of human monocytes,[19]; listed as RAP-103,dual-antagonist
same,CD58 (adhesion molecule) expression,[20],reduced
same,CD86 expression,[20],reduced
same,HLA-DR expression,[20],reduced
same,ICAM1 (adhesion molecule) expression,[20],reduced
same,TLR4-mediated maturation of antigen presenting dendritic cells,[20],blocks
same,MCP-1 (CCL2) Change,[21],decrease
same,MCP-1 (CCL2) Change,[21]; [31],lowering
same,IL-1β Change,[22],decrease
same,IL-1β Change,[22]; [31],lowering
same,CCR2 Change,[23],decrease
same,CCR2 Change,[23]; [31],lowering
same,TNFα Change,[24],decrease
same,TNFα Change,[24]; [31],lowering
same,MIP-1α (CCL3) Change,[25],decrease
same,MIP-1α (CCL3) Change,[25]; [31],lowering
same,IL-6 Change,[26],decrease
same,CCR5 Change,[27],decrease
same,CCR5 Change,[27]; [31],lowering
same,MIP-1β (CCL4)-elicited chemotaxis of human monocytes,[28],potently blocking
same,MIP-1β (CCL4)-elicited chemotaxis of human monocytes,[28]; listed as RAP-103,dual-antagonist
all-D-TTSYT: all-D-version of DAPTA related pentapeptide TTSYT ([dT][dT][dS][dY][dT]),CCL2 (MCP-1) human monocyte chemotaxis,[17],antagonists
all-D-bradykinin,inhibition of the response to bradykinin or bradykinin-like effect,[29],"neither any inhibition of the response to bradykinin, or any bradykinin-like effect"
human CCL2 (MCP-1) (from UniProt P13500 24-99) (ligand),"chemotactic index of human monocytes, without RAP-103 (times over control)",[30],2.5 to 3.5
